Data taken from the supplement of paper PMC4862054.

How the values were obtained:
Settings in all cases: incubation time: 72 h
[1] = test system: BT-474; assay: normalised response (% of control), CellTox Green; higher = less cell death (100 = DMSO, 0 = benzethonium chloride kill control)
In short: (§1)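 Every value is a normalised signal taken at one concentration of a dilution series. Compound was placed in 384-well plates at 5 concentrations in 10-fold steps over a compound-specific 10,000-fold range, and 20 µl of breast cancer cell suspension was seeded onto it. After 72 h, CellTox Green fluorescence (485/520 nm) was measured first and CellTiter-Glo luminescence second, following 10 min at room temperature. Each plate was scaled to 0.1 % DMSO (100) and a positive kill control (0).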

[2] = test system: BT-549; assay: as above
In short: as §1

[3] = test system: CAL-120; assay: as above
In short: as §1

[4] = test system: CAL-148; assay: as above
In short: as §1

[5] = test system: CAL-51; assay: as above
In short: as §1

[6] = test system: CAL-85-1; assay: as above
In short: as §1

[7] = test system: DU-4475; assay: as above
In short: as §1

[8] = test system: HCC1143; assay: as above
In short: as §1

[9] = test system: HCC1599; assay: as above
In short: as §1

[10] = test system: HDQ-P1; assay: as above
In short: as §1

[11] = test system: Hs578T; assay: as above
In short: as §1

[12] = test system: MCF-10A; assay: as above
In short: as §1

[13] = test system: MDA-MB-231; assay: as above
In short: as §1

[14] = test system: MDA-MB-436; assay: as above
In short: as §1

[15] = test system: MDA-MB-453; assay: as above
In short: as §1

[16] = test system: MDA-MB-468; assay: as above
In short: as §1

[17] = test system: MFM-223; assay: as above
In short: as §1

[18] = test system: BT-474; assay: normalised response (% of control), CellTiter-Glo; higher = more viable cells (100 = DMSO, 0 = benzethonium chloride kill control)
Procedure: (§2)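 DSRT, 72 h incubation, CellTox Green / CellTiter-Glo readout. Signal is normalised to DMSO and benzethonium chloride controls. Value is the normalised response at dose 3.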

[19] = test system: BT-549; assay: as above
Procedure: as §2

[20] = test system: CAL-120; assay: as above
Procedure: as §2

[21] = test system: CAL-148; assay: as above
Procedure: as §2

[22] = test system: CAL-51; assay: as above
Procedure: as §2

[23] = test system: CAL-85-1; assay: as above
Procedure: as §2

[24] = test system: DU-4475; assay: as above
Procedure: as §2

[25] = test system: HCC1143; assay: as above
Procedure: as §2

[26] = test system: HCC1599; assay: as above
Procedure: as §2

[27] = test system: HCC1937; assay: as above
Procedure: as §2

[28] = test system: HDQ-P1; assay: as above
Procedure: as §2

[29] = test system: Hs578T; assay: as above
Procedure: as §2

[30] = test system: MCF-10A; assay: as above
Procedure: as §2

[31] = test system: MDA-MB-231; assay: as above
Procedure: as §2

[32] = test system: MDA-MB-436; assay: as above
Procedure: as §2

[33] = test system: MDA-MB-453; assay: as above
Procedure: as §2

[34] = test system: MDA-MB-468; assay: as above
Procedure: as §2

[35] = test system: MFM-223; assay: as above
Procedure: as §2

[36] = test system: SK-BR-3; assay: as above
Procedure: as §2

[37] = test system: HCC1937; assay: normalised response (% of control), CellTox Green; higher = less cell death (100 = DMSO, 0 = benzethonium chloride kill control)
In short: as §1

| SMILES | normalised response [1] | normalised response [2] | normalised response [3] | normalised response [4] | normalised response [5] | normalised response [6] | normalised response [7] | normalised response [8] | normalised response [9] | normalised response [10] | normalised response [11] | normalised response [12] | normalised response [13] | normalised response [14] | normalised response [15] | normalised response [16] | normalised response [17] | normalised response [18] | normalised response [19] | normalised response [20] | normalised response [21] | normalised response [22] | normalised response [23] | normalised response [24] | normalised response [25] | normalised response [26] | normalised response [27] | normalised response [28] | normalised response [29] | normalised response [30] | normalised response [31] | normalised response [32] | normalised response [33] | normalised response [34] | normalised response [35] | normalised response [36] | normalised response [37] |
| --- | --- | --- | --- | --- | --- | --- | --- | --- | --- | --- | --- | --- | --- | --- | --- | --- | --- | --- | --- | --- | --- | --- | --- | --- | --- | --- | --- | --- | --- | --- | --- | --- | --- | --- | --- | --- | --- |
| CN1CCC(COc2cnc(-c3cccc(Cn4nc(-c5cccc(C#N)c5)ccc4=O)c3)nc2)CC1 (10 nM) | 94.1% | 103% | 95.4% | 108% | 83.9% | 108% | 99.5% | 89.6% | 101% | 115% | 76.3% | 70% | 98.5% | 88.8% | 100% | 73.8% | 103% | 96.7% | 104% | 98.8% | 92.9% | 64.8% | 97.2% | 99% | 101% | 100% | 94.6% | 96.4% | 92.8% | 94.9% | 102% | 89% | 89.2% | 93.2% | 89.8% | 80.8% |  |
| COc1cc(Nc2ncc3c(n2)-c2ccc(Cl)cc2C(c2c(F)cccc2OC)=NC3)ccc1C(=O)O [Alisertib] (100 nM) | 91.7% | 96.1% | 92.8% | 90.1% | 27.8% | 77.7% | 89.9% | 75% | 92.3% | 101% | -59.3% | 68.7% | 69.8% | 68.9% | 93.9% | 18.6% | 97% | 77.2% | 73.2% | 78.1% | 102% | 69.1% | 63.7% | 67% | 71.2% | 80.3% | 82.8% | 87% | 74.2% | 81.2% | 84% | 67.6% | 62% | 33.2% | 76.3% | 67.9% | 85.9% |
| Nc1ccn([C@@H]2O[C@H](CO)[C@@H](O)[C@@H]2O)c(=O)n1 [Cytarabine] (100 nM) | 104% | 113% | 109% | 75.5% | 88.1% | 103% | 112% | 99.4% | 111% | 101% | 106% | 102% | 115% | 81.4% | 108% | 103% | 102% | 97.3% | 94% | 101% | 74.7% | 85.8% | 96.5% | 90.4% | 98.8% | 88.6% | 98.9% | 96.7% | 96.7% | 110% | 99% | 95.1% | 141% | 94.6% | 95.3% | 80.1% |  |
| Cc1c2oc3c(C)ccc(C(=O)N[C@@H]4C(=O)N[C@H](C(C)C)C(=O)N5CCC[C@H]5C(=O)N(C)CC(=O)N(C)[C@@H](C(C)C)C(=O)O[C@@H]4C)c3nc-2c(C(=O)N[C@@H]2C(=O)N[C@H](C(C)C)C(=O)N3CCC[C@H]3C(=O)N(C)CC(=O)N(C)[C@@H](C(C)C)C(=O)O[C@@H]2C)c(N)c1=O [Dactinomycin] (10 nM) | 102% | 80.4% | 102% | 17.1% | -32.3% | 69.3% | 74.7% | 117% | 99.3% | 82.8% | 104% | 109% | 43.8% | 90.8% | 91.5% | 84% | 104% | 64.6% | 13.3% | 65% | 27.2% | 20.4% | 51.7% | 3.42% | 54.7% | 102% | 51% | 41.5% | 58.7% | 52.2% | 62.1% | 53.4% | 84.7% | 18.7% | 88.9% | 59.2% | 107% |
| CCN1CCN(c2ccc(Nc3cc(N(C)C(=O)Nc4c(Cl)c(OC)cc(OC)c4Cl)ncn3)cc2)CC1 [NVP-BGJ398] (10 nM) | 98.8% | 95% | 96.6% | 101% | 76% | 112% | 98.7% | 81.9% | 91.5% |  | 92% | 100% | 99.2% | 103% | 99.5% | 154% | 89.8% | 102% | 99.4% | 91.4% | 97.2% | 58.6% | 100% | 97.8% | 100% | 115% | 96.9% | 104% | 99.9% | 98.1% | 93.2% | 95.2% | 92.7% | 99.4% | 95.8% | 97.7% | 106% |
| C=CCNC1=C2C[C@@H](C)C[C@H](OC)[C@H](O)[C@@H](C)/C=C(\C)[C@H](OC(N)=O)[C@@H](OC)/C=C\C=C(/C)C(=O)NC(=CC1=O)C2=O [Tanespimycin] (100 nM) | 76.6% | 91.7% | 90.5% | 71.8% | 82.5% | 74.2% | 93.8% | 90.8% | 103% | 81.7% | 100% | 69.5% |  | 67.8% | 84.5% | 111% | 99% | 99.3% | 47.2% | 85.8% | 85.5% | 47.6% | 98.8% | 86.4% | 49.5% | 93.8% | 70.8% | 61.1% | 66.7% | 50% | 95.9% | 47.3% | 27.9% | 97.3% | 53.7% | 44.2% | 98.7% |
| C[C@]1(c2nc3c(C(N)=O)cccc3[nH]2)CCCN1 [Veliparib] (100 nM) | 101% | 108% | 98.3% | 103% | 96.9% | 105% | 102% | 95.9% | 115% | 109% | 111% |  | 95.9% | 61.1% | 103% | 107% | 108% | 98.3% | 101% | 96.5% | 96.4% | 76.4% | 105% | 103% | 100% | 102% | 101% | 102% | 102% | 96.5% | 105% | 99% | 102% | 96.5% | 98.6% | 95.2% | 87.8% |
| CS(=O)(=O)c1ccc(C(=O)Nc2ccc(Cl)c(-c3ccccn3)c2)c(Cl)c1 [Vismodegib] (100 nM) | 92.5% | 86.2% | 98.9% |  | 98.4% | 105% | 101% | 99.2% | 100% | 108% | 80% | 96.2% | 72.6% | 91.3% | 93.1% | 87% | 88.8% | 94.4% | 101% | 93.1% | 94.6% | 109% | 98.8% | 99.4% | 94.1% | 95.1% | 99% | 99% | 95.5% | 93% | 94.3% | 96% | 88.4% | 96.8% | 94.4% | 92.7% | 97.9% |
